According to patent US20190298650A1, “FORMULATION AND COMPOSITION FOR PREVENTING AND/OR DISSOLVING BIOFILM ON THE SKIN OF A DOMESTIC ANIMAL” (Dechra Veterinary Products LLC, priority 2018, published 2019):
In brackets after ≈: the same amount, converted by molar mass.

Experiments:
[1] = tested on: Pseudomonas spp isolates from clinical canine otitis cases; assay: Biofilm prevention assay (MIC read visually, then crystal violet OD570); type: cell-based; conditions: 28 isolates, LBB, 24 h at 37° C., NAC alone
From the text: One hundred Pseudomonas spp isolates from clinical canine otitis cases from the UK (96), Dubai (3) and Malta (1) were submitted to NationWide Laboratories Knutton (CAPL) for routine culture and susceptibility testing over a 12 month period. Four isolates were from two dogs with bilateral otitis.
The dilutions were made using a Broth (LBB).
Contents of the wells were discarded prior to washing three times in phosphate buffered saline (PBS) at pH 7.2. […] The contents were removed by micropipetting before plates rinsed thoroughly under running water. […] Plates were covered to prevent evaporation.

[2] = tested on: Pseudomonas spp isolates from clinical canine otitis cases (biofilm); assay: Biofilm breaking assay (crystal violet OD570 on a 24 h pre-formed biofilm); type: cell-based; conditions: only NAC 5 mg/mL, 14 isolates
Experimental: One hundred Pseudomonas spp isolates from clinical canine otitis cases from the UK (96), Dubai (3) and Malta (1) were submitted to NationWide Laboratories Knutton (CAPL) for routine culture and susceptibility testing over a 12 month period. Four isolates were from two dogs with bilateral otitis. […] Isolates were then stored frozen of beads (ProLab UK) at -20° C. […] Negative control wells, in triplicate, contained 180 μL of LBB and 20 μL of distilled, sterile water. Plates were then incubated for 24 hours at 37° C. Contents of the wells were discarded prior to washing three times in phosphate buffered saline (PBS) at pH 7.2. […] 100 μL of Luria-Bertani enrichment broth (LBB) and 100 μL of sterile, distilled water for negative control. […] For the biofilm breaking assay the following dilutions where tested. The dilutions were made using a Broth (LBB). […] Plates were then incubated for another 24 hours period. Contents of the wells were discarded prior to washing three times in phosphate buffered saline (PBS) at pH 7.2. […] The contents were removed by micropipetting before plates rinsed thoroughly under running water. […] Plates were covered to prevent evaporation.

MIC [1]: 50 mg/mL (≈ 306 mM)
Compound: CC(=O)N[C@@H](CS)C(=O)O [NAC, (2R)-2-acetamido-3-sulfanylpropanoic acid]
optical density (OD570) Max. [2]: 1.40
optical density (OD570) Mean [2]: 0.38
optical density (OD570) Median [2]: 0.26
optical density (OD570) Min. [2]: −0.03
